{
  "source": "PubChem BioAssay AID2060599",
  "about": "(Molecular Pharmacology Branch, DTP, NCI, 2025)",
  "system": "817829-284-R-J1-PDC complex spheroids, viability",
  "test": "Anticancer human tumor 817829-284-R-J1-PDC patient-derived colon adenocarcinoma cell line growth inhibition [CLK]",
  "conditions": "for pIC50: curve of first compound; for viability, T/C: stronger effect = lower value",
  "summary_of_the_method": "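Multi-cell-type spheroids combined patient-derived tumor cells with HUVEC endothelial cells and human mesenchymal stem cells. Paired agents were dosed in half-log steps down from about clinical Cmax, or from 10 microM where Cmax was unknown.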",
  "key": {"[1]": {"conditions": "second compound 0.0316 µM, first compound 0.00316 µM"}, "[2]": {"conditions": "second compound 0.0316 µM, first compound 0.01 µM"}, "[3]": {"conditions": "second compound 0.0316 µM, first compound 0.0316 µM"}, "[4]": {"conditions": "second compound 0.0316 µM, first compound 0.1 µM"}, "[5]": {"conditions": "second compound 0.0316 µM, first compound 0.316 µM"}, "[6]": {"conditions": "second compound 0.0316 µM, first compound 1 µM"}, "[7]": {"conditions": "second compound 0.1 µM, first compound 0.00316 µM"}, "[8]": {"conditions": "second compound 0.1 µM, first compound 0.01 µM"}, "[9]": {"conditions": "second compound 0.1 µM, first compound 0.0316 µM"}, "[10]": {"conditions": "second compound 0.1 µM, first compound 0.1 µM"}, "[11]": {"conditions": "second compound 0.1 µM, first compound 0.316 µM"}, "[12]": {"conditions": "second compound 0.1 µM, first compound 1 µM"}, "[13]": {"conditions": "second compound 0.316 µM, first compound 0.00316 µM"}, "[14]": {"conditions": "second compound 0.316 µM, first compound 0.01 µM"}, "[15]": {"conditions": "second compound 0.316 µM, first compound 0.0316 µM"}, "[16]": {"conditions": "second compound 0.316 µM, first compound 0.1 µM"}, "[17]": {"conditions": "second compound 0.316 µM, first compound 0.316 µM"}, "[18]": {"conditions": "second compound 0.316 µM, first compound 1 µM"}, "[19]": {"conditions": "second compound 1 µM, first compound 0.00316 µM"}, "[20]": {"conditions": "second compound 1 µM, first compound 0.01 µM"}, "[21]": {"conditions": "second compound 1 µM, first compound 0.0316 µM"}, "[22]": {"conditions": "second compound 1 µM, first compound 0.1 µM"}, "[23]": {"conditions": "second compound 1 µM, first compound 0.316 µM"}, "[24]": {"conditions": "second compound 1 µM, first compound 1 µM"}, "[25]": {"conditions": "second compound 3.16 µM, first compound 0.00316 µM"}, "[26]": {"conditions": "second compound 3.16 µM, first compound 0.01 µM"}, "[27]": {"conditions": "second compound 3.16 µM, first compound 0.0316 µM"}, "[28]": {"conditions": "second compound 3.16 µM, first compound 0.1 µM"}, "[29]": {"conditions": "second compound 3.16 µM, first compound 0.316 µM"}, "[30]": {"conditions": "second compound 3.16 µM, first compound 1 µM"}, "[31]": {"conditions": "second compound 10 µM, first compound 0.00316 µM"}, "[32]": {"conditions": "second compound 10 µM, first compound 0.01 µM"}, "[33]": {"conditions": "second compound 10 µM, first compound 0.0316 µM"}, "[34]": {"conditions": "second compound 10 µM, first compound 0.1 µM"}, "[35]": {"conditions": "second compound 10 µM, first compound 0.316 µM"}, "[36]": {"conditions": "second compound 10 µM, first compound 1 µM"}},
  "note": "pIC50: −log10 of the molar value.",
  "data": [
    {"molecule": "CCN1CCN(Cc2ccc(Nc3ncc(F)c(-c4cc(F)c5nc(C)n(C(C)C)c5c4)n3)nc2)CC1", "note": "+ CN1CCN(c2cc(C(=O)Nc3cc4cc(-c5cnn(C)c5)ccc4cn3)ccn2)CC1;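 note: spheroids exposed to the agents for seven days before readout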", "values": [
      {"measurement": "pIC50", "setting": "second compound 0.0316 µM", "value": 7.68},
      {"measurement": "pIC50", "setting": "second compound 0.1 µM", "value": "> 8.50"},
      {"measurement": "pIC50", "setting": "second compound 0.316 µM", "value": "> 8.50"},
      {"measurement": "pIC50", "setting": "second compound 1 µM", "value": "> 8.50"},
      {"measurement": "pIC50", "setting": "second compound 3.16 µM", "value": "> 8.50"},
      {"measurement": "pIC50", "setting": "second compound 10 µM", "value": "> 8.50"},
      {"measurement": "viability, T/C", "setting": "[1]", "value": 49.6, "unit": "%"},
      {"measurement": "viability, T/C", "setting": "[2]", "value": 64.4, "unit": "%"},
      {"measurement": "viability, T/C", "setting": "[3]", "value": 46.2, "unit": "%"},
      {"measurement": "viability, T/C", "setting": "[4]", "value": 36.6, "unit": "%"},
      {"measurement": "viability, T/C", "setting": "[5]", "value": 36.9, "unit": "%"},
      {"measurement": "viability, T/C", "setting": "[6]", "value": 29.2, "unit": "%"},
      {"measurement": "viability, T/C", "setting": "[7]", "value": 17.4, "unit": "%"},
      {"measurement": "viability, T/C", "setting": "[8]", "value": 16.2, "unit": "%"},
      {"measurement": "viability, T/C", "setting": "[9]", "value": 15.4, "unit": "%"},
      {"measurement": "viability, T/C", "setting": "[10]", "value": 20.7, "unit": "%"},
      {"measurement": "viability, T/C", "setting": "[11]", "value": 18.7, "unit": "%"},
      {"measurement": "viability, T/C", "setting": "[12]", "value": 11.8, "unit": "%"},
      {"measurement": "viability, T/C", "setting": "[13]", "value": 1.34, "unit": "%"},
      {"measurement": "viability, T/C", "setting": "[14]", "value": 1.6, "unit": "%"},
      {"measurement": "viability, T/C", "setting": "[15]", "value": 1.6, "unit": "%"},
      {"measurement": "viability, T/C", "setting": "[16]", "value": 1.6, "unit": "%"},
      {"measurement": "viability, T/C", "setting": "[17]", "value": 2.31, "unit": "%"},
      {"measurement": "viability, T/C", "setting": "[18]", "value": 0.61, "unit": "%"},
      {"measurement": "viability, T/C", "setting": "[19]", "value": 0.17, "unit": "%"},
      {"measurement": "viability, T/C", "setting": "[20]", "value": 0.12, "unit": "%"},
      {"measurement": "viability, T/C", "setting": "[21]", "value": 0.08, "unit": "%"},
      {"measurement": "viability, T/C", "setting": "[22]", "value": 0.08, "unit": "%"},
      {"measurement": "viability, T/C", "setting": "[23]", "value": 0.1, "unit": "%"},
      {"measurement": "viability, T/C", "setting": "[24]", "value": 0.19, "unit": "%"},
      {"measurement": "viability, T/C", "setting": "[25]", "value": 0.13, "unit": "%"},
      {"measurement": "viability, T/C", "setting": "[26]", "value": 0.14, "unit": "%"},
      {"measurement": "viability, T/C", "setting": "[27]", "value": 0.12, "unit": "%"},
      {"measurement": "viability, T/C", "setting": "[28]", "value": 0.15, "unit": "%"},
      {"measurement": "viability, T/C", "setting": "[29]", "value": 0.12, "unit": "%"},
      {"measurement": "viability, T/C", "setting": "[30]", "value": 0.1, "unit": "%"},
      {"measurement": "viability, T/C", "setting": "[31]", "value": 0.09, "unit": "%"},
      {"measurement": "viability, T/C", "setting": "[32]", "value": 0.1, "unit": "%"},
      {"measurement": "viability, T/C", "setting": "[33]", "value": 0.08, "unit": "%"},
      {"measurement": "viability, T/C", "setting": "[34]", "value": 0.09, "unit": "%"},
      {"measurement": "viability, T/C", "setting": "[35]", "value": 0.11, "unit": "%"},
      {"measurement": "viability, T/C", "setting": "[36]", "value": 0.08, "unit": "%"}
    ]},
    {"molecule": "COc1c(OCCCN2CCOCC2)ccc2c3n(c(=NC(=O)c4cnc(N)nc4)nc12)CCN3", "note": "+ CN1CCN(c2cc(C(=O)Nc3cc4cc(-c5cnn(C)c5)ccc4cn3)ccn2)CC1", "values": [
      {"measurement": "pIC50", "setting": "second compound 0.0316 µM", "value": 8.05},
      {"measurement": "pIC50", "setting": "second compound 0.1 µM", "value": "> 8.50"},
      {"measurement": "pIC50", "setting": "second compound 0.316 µM", "value": "> 8.50"},
      {"measurement": "pIC50", "setting": "second compound 1 µM", "value": "> 8.50"},
      {"measurement": "pIC50", "setting": "second compound 3.16 µM", "value": "> 8.50"},
      {"measurement": "pIC50", "setting": "second compound 10 µM", "value": "> 8.50"},
      {"measurement": "viability, T/C", "setting": "[1]", "value": 52.3, "unit": "%"},
      {"measurement": "viability, T/C", "setting": "[2]", "value": 51.3, "unit": "%"},
      {"measurement": "viability, T/C", "setting": "[3]", "value": 33.9, "unit": "%"},
      {"measurement": "viability, T/C", "setting": "[4]", "value": 13.7, "unit": "%"},
      {"measurement": "viability, T/C", "setting": "[5]", "value": 3.82, "unit": "%"},
      {"measurement": "viability, T/C", "setting": "[6]", "value": 1.54, "unit": "%"},
      {"measurement": "viability, T/C", "setting": "[7]", "value": 20.9, "unit": "%"},
      {"measurement": "viability, T/C", "setting": "[8]", "value": 17.7, "unit": "%"},
      {"measurement": "viability, T/C", "setting": "[9]", "value": 11.5, "unit": "%"},
      {"measurement": "viability, T/C", "setting": "[10]", "value": 6.91, "unit": "%"},
      {"measurement": "viability, T/C", "setting": "[11]", "value": 1.95, "unit": "%"},
      {"measurement": "viability, T/C", "setting": "[12]", "value": 1.19, "unit": "%"},
      {"measurement": "viability, T/C", "setting": "[13]", "value": 1.52, "unit": "%"},
      {"measurement": "viability, T/C", "setting": "[14]", "value": 1.2, "unit": "%"},
      {"measurement": "viability, T/C", "setting": "[15]", "value": 0.85, "unit": "%"},
      {"measurement": "viability, T/C", "setting": "[16]", "value": 0.73, "unit": "%"},
      {"measurement": "viability, T/C", "setting": "[17]", "value": 0.56, "unit": "%"},
      {"measurement": "viability, T/C", "setting": "[18]", "value": 0.47, "unit": "%"},
      {"measurement": "viability, T/C", "setting": "[19]", "value": 0.08, "unit": "%"},
      {"measurement": "viability, T/C", "setting": "[20]", "value": 0.11, "unit": "%"},
      {"measurement": "viability, T/C", "setting": "[21]", "value": 0.12, "unit": "%"},
      {"measurement": "viability, T/C", "setting": "[22]", "value": 0.12, "unit": "%"},
      {"measurement": "viability, T/C", "setting": "[23]", "value": 0.11, "unit": "%"},
      {"measurement": "viability, T/C", "setting": "[24]", "value": 0.34, "unit": "%"},
      {"measurement": "viability, T/C", "setting": "[25]", "value": 0.17, "unit": "%"},
      {"measurement": "viability, T/C", "setting": "[26]", "value": 0.13, "unit": "%"},
      {"measurement": "viability, T/C", "setting": "[27]", "value": 0.13, "unit": "%"},
      {"measurement": "viability, T/C", "setting": "[28]", "value": 0.09, "unit": "%"},
      {"measurement": "viability, T/C", "setting": "[29]", "value": 0.17, "unit": "%"},
      {"measurement": "viability, T/C", "setting": "[30]", "value": 0.17, "unit": "%"},
      {"measurement": "viability, T/C", "setting": "[31]", "value": 0.03, "unit": "%"},
      {"measurement": "viability, T/C", "setting": "[32]", "value": 0.06, "unit": "%"},
      {"measurement": "viability, T/C", "setting": "[33]", "value": 0.1, "unit": "%"},
      {"measurement": "viability, T/C", "setting": "[34]", "value": 0.56, "unit": "%"},
      {"measurement": "viability, T/C", "setting": "[35]", "value": 0.13, "unit": "%"},
      {"measurement": "viability, T/C", "setting": "[36]", "value": 0.12, "unit": "%"}
    ]}
  ]
}
